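96-well plates; 48 h exposure; 5 concentrations. Endpoints by linear interpolation between flanking doses. Not reached: highest tested concentration assigned. GI50 marks 50% less growth. Definition used: TGI = concentration required for complete inhibition of growth.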

Some test systems named below: NCI/ADR-RES ovarian; MALME-3M melanoma; LOX IMVI melanoma; COLO 205 colon; RXF 393 renal; RPMI-8226 leukemia; IGROV1 ovarian; HCT-15 colon; OVCAR-8 ovarian; SF-295 CNS.
Common to all, as to test: DTP human tumour cell line panel, 48 h

In general, GI50 refers to the concentration giving 50% growth inhibition. As usually defined, the TGI is the concentration at which net growth stops. Regarding `Clc1ccc(CO/N=C(\Cn2ccnc2)c2ccc(Cl)cc2Cl)c(Cl)c1`, the GI50 was 1.27 µM in the experiment on NCI/ADR-RES ovarian; 1.66 µM in the experiment with MALME-3M melanoma; 1.45 µM in the experiment with LOX IMVI melanoma; 1.86 µM in the experiment on COLO 205 colon; 1.61 µM in the experiment with RXF 393 renal; 1.45 µM with RPMI-8226 leukemia. Besides, the values for the GI50 in the experiment with IGROV1 ovarian and with HCT-15 colon were 1.92 µM and 1.57 µM, respectively. Moreover, the TGI in the experiment with NCI/ADR-RES ovarian was found to be 2.9 µM; in the experiment on MALME-3M melanoma, 3.36 µM; in the experiment on LOX IMVI melanoma, 3.21 µM; with COLO 205 colon, 3.29 µM; with RXF 393 renal, 3.05 µM; in the experiment on RPMI-8226 leukemia, 4.52 µM. The TGI in the experiment with IGROV1 ovarian was found to be 3.92 µM; in the experiment with HCT-15 colon it was 3.21 µM.
As for `Cc1cc(C)nc(SC2=C(Nc3cccc(Cl)c3)C(=O)N(Cc3ccccc3)C2=O)n1`, the GI50 with NCI/ADR-RES ovarian, in the experiment on MALME-3M melanoma, with OVCAR-8 ovarian, in the experiment with LOX IMVI melanoma, in the experiment with COLO 205 colon and in the experiment with RPMI-8226 leukemia was more than 170 µM throughout. The GI50 with IGROV1 ovarian, with HCT-15 colon and in the experiment with SF-295 CNS was more than 170 µM each time. The TGI in the experiment with NCI/ADR-RES ovarian, in the experiment with MALME-3M melanoma, with OVCAR-8 ovarian, in the experiment on LOX IMVI melanoma, in the experiment with COLO 205 colon and in the experiment with RPMI-8226 leukemia was more than 170 µM throughout. Moreover, the TGI with IGROV1 ovarian, in the experiment on HCT-15 colon and in the experiment on SF-295 CNS was more than 170 µM throughout.
For `COc1ccc(-c2nc(-c3nc4cc(C)c(C)cc4[nH]3)cc3c2[nH]c2ccccc23)cc1`, the GI50 in the experiment on NCI/ADR-RES ovarian was 6.37 µM; with MALME-3M melanoma it was 4.6 µM; in the experiment with OVCAR-8 ovarian, 3.46 µM; in the experiment on LOX IMVI melanoma it was 3.08 µM; with COLO 205 colon it was 1.79 µM; in the experiment on RXF 393 renal, 1.72 µM. Also, the GI50 in the experiment on RPMI-8226 leukemia was 1.77 µM; in the experiment with IGROV1 ovarian, 9.99 µM; in the experiment on HCT-15 colon, 2.68 µM. Further, the TGI was more than 100 µM with NCI/ADR-RES ovarian; 16.5 µM in the experiment with MALME-3M melanoma; more than 100 µM with OVCAR-8 ovarian; 11.2 µM with LOX IMVI melanoma; 3.8 µM in the experiment on COLO 205 colon; 3.66 µM in the experiment with RXF 393 renal. The values for the TGI in the experiment on RPMI-8226 leukemia, in the experiment with IGROV1 ovarian and with HCT-15 colon were 5.16 µM, more than 100 µM and 72.5 µM, respectively.
In the case of `[N-]=[N+]=CC(=O)OCC(N)C(=O)O` (stereo unspecified), the GI50 in the experiment on NCI/ADR-RES ovarian was 3.2 µM; in the experiment with MALME-3M melanoma, 6.56 µM; in the experiment on OVCAR-8 ovarian, 0.923 µM; with LOX IMVI melanoma it was 0.485 µM; with COLO 205 colon, 0.778 µM; with RXF 393 renal, 4.46 µM. In addition, the GI50 in the experiment with RPMI-8226 leukemia is 1.8 µM; with IGROV1 ovarian, 5.47 µM; in the experiment with HCT-15 colon, 0.631 µM. For the same molecule, the concentration for total growth inhibition (TGI) with NCI/ADR-RES ovarian, in the experiment on MALME-3M melanoma, in the experiment with OVCAR-8 ovarian, with LOX IMVI melanoma, with COLO 205 colon and in the experiment with RXF 393 renal was more than 100 µM in each case. Moreover, the concentration for total growth inhibition (TGI) with RPMI-8226 leukemia, in the experiment on IGROV1 ovarian and in the experiment on HCT-15 colon was more than 100 µM each time.
Take `COC(=O)c1c2c(c(C)[n+]([O-])c1C)C(=O)C(NCc1ccc(F)c(F)c1)=CC2=O`: the GI50 in the experiment with NCI/ADR-RES ovarian is 2.3 µM; with MALME-3M melanoma, 0.238 µM; in the experiment on OVCAR-8 ovarian, 1.96 µM; in the experiment on LOX IMVI melanoma it was 1.98 µM; with COLO 205 colon it was 0.673 µM; with RXF 393 renal, 2.15 µM. For the same molecule, the figures for the GI50 in the experiment with RPMI-8226 leukemia, in the experiment on HCT-15 colon and in the experiment on SF-295 CNS were 2.05 µM, 1.6 µM and 1.88 µM, respectively. Further, the TGI was 6.86 µM in the experiment with NCI/ADR-RES ovarian; 0.874 µM in the experiment with MALME-3M melanoma; 7.97 µM in the experiment with OVCAR-8 ovarian; 6.76 µM in the experiment with LOX IMVI melanoma; 2.1 µM in the experiment with COLO 205 colon; 5.96 µM with RXF 393 renal. For the same molecule, the TGI with RPMI-8226 leukemia worked out at 5.6 µM; in the experiment on HCT-15 colon, 4.02 µM; with SF-295 CNS it was 4.64 µM.
In the case of `COC(=O)C1C(=O)O[C@@H](c2ccc(OC)cc2OC)C1C(=O)OC` (stereo partly specified), the TGI in the experiment on MALME-3M melanoma, with OVCAR-8 ovarian, in the experiment on LOX IMVI melanoma, with COLO 205 colon, with RXF 393 renal and in the experiment with RPMI-8226 leukemia was more than 100 µM each time. For the same molecule, the TGI in the experiment on IGROV1 ovarian, with HCT-15 colon and in the experiment with SF-295 CNS was more than 100 µM throughout.
Regarding `CC(=O)Nc1ccc(/C=C/C(=O)c2sc(C(N)=S)nc2C)cc1`, the TGI with MALME-3M melanoma, in the experiment with OVCAR-8 ovarian, with LOX IMVI melanoma, in the experiment on COLO 205 colon, with RXF 393 renal and in the experiment on RPMI-8226 leukemia was more than 100 µM throughout. Moreover, the TGI in the experiment with IGROV1 ovarian, with HCT-15 colon and with SF-295 CNS was more than 100 µM each time.
In the case of `COc1cc(-c2nc3ccccc3s2)ccc1OCc1nc2n(n1)S(=O)(=O)c1ccccc1N2C`, the GI50 in the experiment with NCI/ADR-RES ovarian, with MALME-3M melanoma, in the experiment on OVCAR-8 ovarian, in the experiment on LOX IMVI melanoma, with COLO 205 colon and with IGROV1 ovarian was more than 100 µM in each case. The GI50 with HCT-15 colon and in the experiment with SF-295 CNS was more than 100 µM each time. The TGI with NCI/ADR-RES ovarian, in the experiment on MALME-3M melanoma, in the experiment with OVCAR-8 ovarian, with LOX IMVI melanoma, with COLO 205 colon and in the experiment with IGROV1 ovarian was more than 100 µM in each case. The TGI in the experiment on HCT-15 colon and in the experiment with SF-295 CNS was more than 100 µM each time.
`Cc1c(Cl)ccc2c1NC(=O)C2(O)C1Cc2ccccc2C1=O` (stereo unspecified): the TGI with MALME-3M melanoma, with OVCAR-8 ovarian, with LOX IMVI melanoma, in the experiment on COLO 205 colon, in the experiment with RXF 393 renal and in the experiment with RPMI-8226 leukemia was more than 100 µM in each case. Further, the TGI in the experiment on IGROV1 ovarian, in the experiment on HCT-15 colon and in the experiment on SF-295 CNS was more than 100 µM in each case.
